Values quoted from earlier work in patent US6858233B2, “Simmondsin processing methods and products” (International Flora Technologies, Ltd., priority 2001, dated 2005).

Legend:
[1] = system: animals; details: reported in the literature
[2] = system: rats; details: relative to simmondsin, Cokelaere et al. 1996

For simmondsin ferulate, the “ability to cause food intake reduction” value [1] is given as “significant food intake reduction” and the “efficacy compared to simmondsin (food intake reduction)” value [2] is given as “about 67%”.

For `N#C/C=C1\[C@H](O[C@@H]2O[C@H](CO)[C@@H](O)[C@H](O)[C@H]2O)C[C@H](O)[C@H](O)[C@H]1O` [didemethyl simmondsin], the “ability to cause food intake reduction” value [1] is listed as “thought not to have such efficacy”.

In the case of `CO[C@H]1[C@@H](OC)C[C@@H](O[C@@H]2O[C@H](CO)[C@@H](O)[C@H](O)[C@H]2O)/C(=C\C#N)[C@@H]1O` [simmondsin], the “ability to cause food intake reduction” value [1] is listed as “significant food intake reduction”.
